This passage reports IC50 results from patent publication EP4772509A1, “KINESIN KIF18A INHIBITOR, AND APPLICATION THEREOF” (Shanghai Apeiron Therapeutics Company Limited, priority 2023, dated 2025).

Where two headings read alike, the source gives them in different places.

The test system of test [1] is OVCAR3 cells. Nature of the test: Cell proliferation activity test (CyQUANT Direct). The class given is cell-based. The note with it: 3 days, 0.2% DMSO, CyQUANT fluorescence. The essentials:
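OVCAR3 cells in RPMI-1640 with 10% FBS were seeded, then treated overnight later with compound at final 0–10 µM (0.2% DMSO) for 3 days at 37°C, 5% CO2. Proliferation was read as CyQUANT Direct fluorescence after 60 min at 37°C.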

In test [2] the target is T1, Human KIF18A (amino acid sequence 1-417) (Homo sapiens, UniProt Q8NI77).
T1 construct: purchased Viva Biotech (Shanghai) Ltd
T1 sequence (Q8NI77 1-417): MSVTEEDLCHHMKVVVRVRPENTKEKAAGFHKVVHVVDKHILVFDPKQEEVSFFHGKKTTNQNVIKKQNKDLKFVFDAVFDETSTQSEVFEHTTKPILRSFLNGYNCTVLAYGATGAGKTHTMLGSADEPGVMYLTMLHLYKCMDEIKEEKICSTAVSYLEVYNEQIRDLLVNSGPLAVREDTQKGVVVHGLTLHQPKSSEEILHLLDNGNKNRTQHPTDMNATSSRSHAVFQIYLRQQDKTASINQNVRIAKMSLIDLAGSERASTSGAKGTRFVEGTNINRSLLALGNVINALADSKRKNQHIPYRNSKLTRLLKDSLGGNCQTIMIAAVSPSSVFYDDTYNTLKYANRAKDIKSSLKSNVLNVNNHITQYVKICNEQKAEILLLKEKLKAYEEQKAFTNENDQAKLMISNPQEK
Nature of the test: Enzymatic activity test (ADP-Glo, microtubule-stimulated ATPase). The class given is biochemical. As to conditions: 60 µg/mL microtubules, 25 µM ATP, 2.5 nM KIF18A protein, 120 min at ambient temperature, chemiluminescence; read-out: KIF18A IC50. The essentials: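 KIF18A (1-417) at 2.5 nM with 60 µg/mL microtubules and 25 µM ATP, compounds at 0-10 µM final, reacted 120 min at ambient temperature. ADP formed was read by ADP-Glo chemiluminescence after two 30 min room-temperature steps.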
A general note: In ADP-Glo the light output rises with the ADP produced.

The test system of test [3] is HT29 cells. Kind of test: CyQuant cell proliferation activity test. The class given is cell-based. The note with it: HT29 at 2000 cells per well, 3 days, 0.2% DMSO, XLFIT. Here is the method: Materials and Cells: HT29 cells were purchased from Nanjing Cobioer Biosciences Co., Ltd.; RPMI-1640 medium, fetal bovine serum, Trypsin-EDTA (0.25%), 96-well plates, and CyQuant reagents were purchased from ThermoFisher (USA); DMSO was purchased from SIGMA (USA).
Cell Culture: HT29 cells were cultured with RPMI-1640 containing 10% fetal bovine serum under the condition of 37°C and 5% CO2. Only cells in the logarithmic growth phase could be used for the test.
Cell Proliferation Activity Test: CyQuant reagent was used to detect the proliferation inhibitory activity of compounds on HT29 cells. The cell density was adjusted, and 100 µL per well was inoculated into a 96-well plate (HT29 at 2000 cells per well), then incubated overnight at 37°C and 5% CO2. Add compounds of various target concentrations (initial concentration of 3000 nM, 3-fold dilution, 9 concentration gradients), and make the DMSO content 0.2%. The cell plate was incubated at 37°C in 5% CO2 for 3 days. CyQuant reagent was added and incubated for 1 h. The plates were read by Envision, and IC50 was calculated using XLFIT.

One may read the IC50 as the concentration at which inhibition is half-maximal. Consider `Cc1cc2nc(n1)N1CCC(F)(F)C(C=CCC3=CC=C(S3)c3cc(NS(=O)(=O)CCO)ccc3C(=O)N2)C1` (single isomer, unassigned) [Example 57A, N-(1^4,1^4-difluoro-2^6-methyl-4-oxo-3-aza-2(2,4)-pyrimidin-1(1,3)-piperidin-6(2,5)-thiophene-5(1,2)-benzoazacyclon-8-en-5^4-yl)-2-hydroxyethane-1-sulfonamide], for which the IC50 in test [1] (Homo sapiens, OVCAR-3, 72 h) stood at 114 nM; in test [2], 60 nM; in test [3] (Homo sapiens, HT-29, 72 h) it was 39 nM.
In the same order, the values of `Cc1cc2nc(n1)N1CCC(F)(F)C(/C=C\CC3CCN(CC3)c3cc(NS(=O)(=O)CCO)c4c(c3C(=O)N2)CCC4)C1` (stereo not drawn) [Example 4, N-(1^4,1^4-difluoro-2^6-methyl-4-oxo-5^2,5^3-dihydro-5^1H-3-aza-2(2,4)-pyrimidin-1(1,3),6(1,4)-dipiperidin-5(4,5)-indenoheterocyclonon-8-en-5^7-yl)-2-hydroxyethane-1-sulfonamide] are 49 nM, 404 nM and 55 nM.
`COc1cc2nc(n1)N1CCC(F)(F)C(/C=C\CC3CCN(CC3)c3cc(NS(=O)(=O)CCO)c4c(c3C(=O)N2)CCC4=O)C1` (stereo not drawn) [Example 5, N-(1^4,1^4-difluoro-2^6-methoxy-5^1,4-dioxo-5^2,5^3-dihydro-5^1H-3-aza-2(2,4)-pyrimidin-1(1,3),6(1,4)-dipiperidin-5(4,5)-indenoheterocyclononane-8-en-5^7-yl)-2-hydroxyethane-1-sulfonamide]: the IC50 turned out to be 42 nM in test [1] (Homo sapiens, OVCAR-3, 72 h); 162 nM in test [2]; 42 nM in test [3] (Homo sapiens, HT-29, 72 h).
In the case of `Cc1cc2nc(n1)N1CCC(F)(F)[C@@H](CCCC3CCN(CC3)c3cc(NS(=O)(=O)CCO)c4c(c3C(=O)N2)CCC4=O)C1` [Example 6, N-((1^3S)-1^4,1^4-difluoro-2^6-methyl-5^1,4-dioxo-5^2,5^3-dihydro-5^1H-3-aza-2(2,4)-pyrimidin-1(1,3),6(1,4)-dipiperidin-5(4,5) -indenoheterocyclononane-5^7-yl)-2-hydroxyethane-1-sulfonamide], the IC50 in test [1] (Homo sapiens, OVCAR-3, 72 h) is 41 nM; in test [2] it was 73 nM; in test [3] (Homo sapiens, HT-29, 72 h), 41 nM.
In the case of `Cn1c2nc(cc1=O)NC(=O)c1c(cc(NS(=O)(=O)CCO)c3c1CCC3=O)N1CCC(C/C=C\C3CN2CCC3(F)F)CC1` (stereo not drawn) [Example 9, N-(11,11-difluoro-6-methyl-1,5,22-trioxo-1,5,6,9,10,11,12,15,16,17,18,22,23,24-tetradecahydro-2H-3,7-(azanediyl)-16, 19-ethano-8,12-methyleneindeno[4,5-i] [1,3,7,11]tetraazacyclohenicosan-21-yl)-2-hydroxyethane-1-sulfonamide], the IC50 in test [1] (Homo sapiens, OVCAR-3, 72 h) worked out at 1060 nM; in test [2] it was 264 nM; in test [3] (Homo sapiens, HT-29, 72 h), 1020 nM.
Taken in the same sequence, the figures for `Cc1cc2nc(n1)N1CCC(F)(F)[C@@H](CCCC3CCN(CC3)c3cc(NS(=O)(=O)CCO)c4c(c3C(=O)N2)CCC4=O)C1` [Example 10, N-((1^3S)-1^4,1^4-difluoro-2^6-methyl-5^1,4-dioxo-5^2,5^3-dihydro-5^1H-3-aza-2(2,4)-pyrimidin-1(1,3),6(1,4)-dipiperidin-5(4,5) -indenobicyclononane-5^7-yl)-2-hydroxyethane-1-sulfonamide] were 36 nM, 43 nM and 39 nM.
In the same order, the values of `Cc1cc2nc(n1)N1CCC(F)(F)C(/C=C\CC3CCN(CC3)c3cc(NS(=O)(=O)C(C)CO)c4c(c3C(=O)N2)CCC4=O)C1` (stereo not drawn) [Example 11, (Z)-N-(1^4,1^4-difluoro-2^6-methyl-5^1,4-dioxo-5^2,5^3-dihydro-5^1hydro-3-aza-2(2,4)-pyrimidin-1(1,3),6(1,4)-dipiperidin-5(4, 5)-indenocyclonofin-8-en-5^7-yl)-1-hydroxypropane-2-sulfonamide] are 25 nM, 76 nM and 33 nM.
Taken in the same sequence, the figures for `Cc1cc2nc(n1)N1CCC(F)(F)C(/C=C\CC3CCN(CC3)c3cc(NS(=O)(=O)C(C)(C)CO)c4c(c3C(=O)N2)CCC4=O)C1` (stereo not drawn) [Example 12, (Z)-N-(1^4,1^4-difluoro-2^6-methyl-5^1,4-dioxo-5^2,5^3-dihydro-5^1hydro-3-aza-2(2,4)-pyrimidin-1(1,3),6(1,4)-dipiperidin-5(4, 5)-indenocyclonofin-8-en-5^7-yl)-1-hydroxy-2-methylpropane-2-sulfonamide] were 96 nM, 172 nM and 165 nM.
As to `Cc1cc2nc(n1)N1CCC(F)(F)C(/C=C\CC3CCN(CC3)c3cc(NS(=O)(=O)CCO)c4c(c3C(=O)N2)CCC4(C)O)C1` (stereo not drawn) [Example 13, (cis)-N-(1^4,1^4-difluoro-5^1-hydroxy-2^6,5^1-dimethyl-4-oxo-5^2,5^3-dihydro-5^1H-3-aza-2(2,4)-pyrimidin-1(1,3),6(1,4)-dipiperidin-5(4,5)-indenocyclononane-8-en-5^7-yl)-2-hydroxyethane-1-sulfonamide], the IC50 in test [1] (Homo sapiens, OVCAR-3, 72 h) amounted to 181 nM; in test [2], 294 nM; in test [3] (Homo sapiens, HT-29, 72 h), 187 nM.
`Cc1cc2nc(n1)N1CCC(F)(F)C(/C=C/CC3CCN(CC3)c3cc(NS(=O)(=O)CCO)c4c(c3C(=O)N2)OCC4=O)C1` (stereo not drawn) [Example 14A, N-(1^4,1^4-difluoro-2^6-methyl-5^3,4-dioxo-5^2,5-dihydro-3-aza-2(2,4)-pyrimidin-1(1,3),6(1,4)-dipiperidin-5(7,6)-benzofurancyclononane-8-en-5^4-yl)-2-hydroxyethane-1-sulfonamide]: the IC50 was 635 nM in test [1] (Homo sapiens, OVCAR-3, 72 h); 44 nM in test [2]; 837 nM in test [3] (Homo sapiens, HT-29, 72 h).
In the same order, the values of `Cc1cc2nc(n1)N1CCC(F)(F)C(/C=C\CC3CCN(CC3)c3cc(NS(=O)(=O)CCO)c4c(c3C(=O)N2)OCC4=O)C1` (stereo not drawn) [Example 14B, N-(1^4,1^4-difluoro-2^6-methyl-5^3,4-dioxo-5^2,5-dihydro-3-aza-2(2,4)-pyrimidin-1(1,3),6(1,4)-dipiperidin-5(7,6)-benzofurancyclononane-8-en-5^4-yl)-2-hydroxyethane-1-sulfonamide] are more than 3000 nM, 307 nM and more than 3000 nM.
In the same order, the values of `Cc1cc2nc(n1)N1CCC(F)(F)C(/C=C/CC3CCN(CC3)c3cc(NS(=O)(=O)CCO)c4c(c3C(=O)N2)CCC4(F)F)C1` (stereo not drawn) [Example 15, 2-Hydroxy-N-(1^4,1^4,5^1,5^1-tetrafluoro-2^1-methyl4-dioxo-5^2,5^1-dihydro-5^1H-3-aza-2(2,4)-pyrimidin-1(1,3),6(1,4)-dipiperidin-5(4,5)-benzofurancyclononane-8-en-5^7-yl)-ethane-1-sulfonamide] are 24 nM, 358 nM and 46 nM.
With `Cc1cc2nc(n1)N1CCC(F)(F)C(C=CCC3CCN(CC3)c3cc(NS(=O)(=O)CCO)c4c(c3C(=O)N2)CNC4=O)C1` (stereo not drawn) [Example 16, N-(6^4,6^4-difluoro-5^6-methyl-2^1,3-dioxo-2^2,2^3-dihydro-2^1H-4-aza-2(5,4)-isoindole-5(4,2)-pyrimidin-1(1,4),6(1,3)-dipiperidineheterocyclonon-7-en-2^7-yl)-2-hydroxyethane-1-sulfonamide], the results for the IC50 in test [1], in test [2] and in test [3] (read-out: HT-29 IC50) were 89 nM, 45 nM and 95 nM, respectively.
In the case of `Cc1cc2nc(n1)N1CCC(F)(F)C(/C=C/CC3CCN(CC3)c3cc(NS(=O)(=O)CCO)c4c(c3C(=O)N2)CCNC4=O)C1` (stereo not drawn) [Example 17, N-(6^4,6^4-difluoro-5^6-methyl-2^1,3-dioxo-2^1,2^2,2^3,2^4-tetrahydro-4-aza-2(6,5)-isoquinoline-5(4,2)-pyrimidin-1(1,4),6(1,3)-dipiperidinylcyclononane-7-en-2^8-yl)-2-hydroxyethane-1-sulfonamide], the IC50 in test [1] (Homo sapiens, OVCAR-3, 72 h) is 96 nM; in test [2], 52 nM; in test [3] (Homo sapiens, HT-29, 72 h) it was 105 nM.
